US7078059B2, “Treatment of bone diseases” (Shire Holdings AG, priority 2000, dated 2006)

Tests used:
[1] = system: osteoclasts cultured on bone slices; assay: In vitro bone resorption assay (osteoclasts on bovine bone slices, CrossLaps); type: cell-based, rat; conditions: LA number = ng/ml lanthanum; lanthanum (III) ion = any of the concentrations tested (100-15000 ng/ml); bafilomycin Al 10 nM
Source text: The method of osteoclast culture on bone slices was originally described by Boyde et al. (1984) and by Chambers et al. (1984). For cell culture, we used a method slightly modified from the original methods (Lakkakorpi et al. 1989, Lakkakorpi and Väänänen, 1991). The rate of bone resorption in the cultures was originally determined by counting the number of resorption pits on each bone or dentine slice using a microscope with phase contrast objectives (Sundquist et al. 1990). Later, the pits were visualized using Wheat Germ Agglutinin lectin that specifically binds to the resorbed area in bone (Selander et al. 1994), making it possible to quantify the total resorbed area using a microscope and computer-assisted image analysis system (Laitala and Väänänen 1994, Hentunen et al. 1995). We used a commercially available method (CrossLaps for cultures, Osteometer Biotech, Herlev, Denmark) to detect the amount of collagen cross-links released into the culture medium as an index of the bone resorption rate (Bagger et al., 1999).
The study protocol uses a method where osteoclasts are cultured on bone slices and allowed to resorb bone. The system is ideal for determining the effect of drug candidates on the bone resorbing activity of osteoclasts. Drug candidates are added into the cell cultures at the beginning of the culture period, and the osteoclasts allowed to resorb bone for 3 days. The amount of bone resorbed during the culture period is determined and compared to the amount of bone resorbed in control cultures (those cultured in the absence of drug candidates).
Transverse 0.1 mm thick slices of cortical bone were cut from the diaphysis of fresh bovine femurs (Atria Slaughterhouse, Oulu, Finland) using a low-speed diamond saw, cleaned by ultrasonication in multiple changes of sterile distilled water, and stored at 4° C. before use. Long bones were removed from 1-day-old rat pups killed by decapitation. […] The resulting suspension of dispersed cells and bone fragments was agitated using a plastic pipette. Larger fragments were allowed to sediment for a few seconds and the supernatant was seeded onto the bone slices pre-wetted in the medium. After a settling period of 30 minutes at 37° C., the bone slices were washed by dipping in fresh medium, and then transferred to wells in 24-well culture dishes containing osteoclast culture medium. The bone slices were incubated in a humidified atmosphere of 95% air and 5% carbon dioxide at 37° C. for 72 hours.
After the culture period, the amount of bone resorption was determined by measuring the amount of collagen cross-links released into the culture medium using a commercial kit (CrossLaps for cultures, Osteometer Biotech) according to the manufacturer s instructions. The number of osteoclasts in each culture was determined by microscopic counting of the amount of TRAP-positive multinuclear cells, and the results are given as the number of collagen cross-links released per one osteoclast.
In the bone resorption assay, the amount of medium CrossLaps (nM) released into the culture medium was determined and the number of osteoclasts in the corresponding cultures calculated. The medium CrossLaps amounts were divided with the osteoclast numbers in the corresponding cultures, and the results are given on Table 1 as relative medium CrossLaps amounts per osteoclasts. The relative values were obtained by dividing each individual value with the mean value of the baseline group.

[2] = system: mouse bone marrow derived osteoprogenitor cells; assay: In vitro osteoblast differentiation assay (cellular alkaline phosphatase); type: cell-based; conditions: LA number = ng/ml lanthanum; lanthanum (III) ion = 100-15000 ng/ml; 17-estradiol 10^−10 M
Source text: We have established a culture model in which mouse bone marrow derived osteoprogenitor cells first proliferate and then differentiate to osteoblasts capable of forming mineralized bone nodules (Qu et al. 1998, Qu et al. 1999). We confirmed this by following the expression of several markers of the osteoblastic phenotype and by studying the morphology of cultures at light and electron microscopic level. […] Thus, this culture system fulfills requirements of an in vitro model useful for studying differentiation of osteoprogenitor cells into bone synthesizing osteoblasts. […] Animals were killed by cervical dislocation. Both femora were removed and the soft tissues were detached aseptically. Metaphyses from both ends were cut off and bone marrow cells were collected by flushing the diaphysis with culture medium: phenol red-free-α-modified essential medium (α-MEM (Gibco BRL, Paisley, UK)). […] The cells were cultured for 6 days and half of the media […] days. […] Cells were washed with warm PBS and adherent cells were detached using trypsin-EDTA. […] The test substances were added at the beginning of the secondary culture without estrogen, and every time when the medium was changed. The number of osteoblasts formed was determined by measuring cellular alkaline phosphatase (ALP) activity in the culture. […] Louis, Mo., USA), and overnight freezing. ALP activity was determined colorimetrically using p-nitrophenylphosphate as substrate at pH 9.7 and determining the optical density at 405 nm. In parallel, protein contents of the wells were determined by the BIO-RAD protein assay, and the specific ALP activity is expressed as units/mg protein. […] Osteoblast differentiation was determined by measuring cellular alkaline phosphatase (ALP) activities and total protein amounts from cell lysates. The ALP activities were divided with the corresponding protein amounts to obtain specific activities of ALP. The results are shown as relative specific activities obtained by dividing each individual value with the mean value of the baseline group.

mature osteoblasts = assay: In vitro bone formation assay (calcium deposition into bone nodules); type: cell-based, mouse; conditions: LA number = ng/ml lanthanum; lanthanum (III) / lanthanum (III) ion = all concentrations tested, 100 to 15,000 ng/ml; 17-estradiol 10^−10M
Description: The activity of mature osteoblasts can be determined by quantifying their ability to form mineralized bone matrix. This is done by demineralizing the formed bone matrix, and determining the amount of calcium released. Thus, this culture system fulfills requirements of an in vitro model useful for studying the bone formation activity of mature osteoblasts. […] At the end of the culture, the amount of calcium deposited during the culture period was determined, and the amount of bone formation (calcium deposition) calculated. […] Extracts of 50 μl were complexed with 1 ml determined o-cresol-phthalein-complexon. The colorimetric reaction was determined at 570 nm in a spectrophotometer. Absolute calcium concentrations were determined by comparison with a calibrated standard provided by the vendor. In this study, the effect of lanthanum carbonate on bone formation was tested. […] The amount of bone formation was determined by measuring the amount of calcium deposited into bone nodules formed by mature osteoblasts. The results are shown as the amount of calcium released (mmol/L) from the bone nodules after HCl extraction. The baseline values are too low to show the results using relative amounts as was done in the other assays.

Row | SMILES | Effect on bone resorption / bone resorbing activity of mature osteoclasts, in words [1] | Effect on osteoblast differentiation, in words [2] | Effect on bone formation activity of mature osteoblasts, in words (mature osteoblasts)
1 | CO/C1=C\C(C)=C\[C@@H](C)[C@@H](O)[C@@H](C)C/C(C)=C/C=C/[C@H](OC)[C@@H]([C@@H](C)[C@@H](O)[C@H](C)[C@@]2(O)C[C@@H](O)[C@H](C)[C@@H](C(C)C)O2)OC1=O [Bafilomycin Al, reference compound] | completely inhibited bone resorption |  | 
2 | C[C@]12CC[C@@H]3c4ccc(O)cc4CC[C@H]3[C@@H]1CC[C@@H]2O [17-β estradiol, reference compound] |  | activated osteoblast differentiation significantly | activated bone formation significantly
